Test results from patent US10125134B2 (Mirati Therapeutics, Inc., priority 2016, dated 2018).
Structures can show the parent of a compound that is named as a salt. Where two headings read alike, the source gives them in different places.

How the values were obtained:
KRas G12C = KRas G12C (Homo sapiens, UniProt P01116, C118S/C51S/C80L/G12C); assay: KRas G12C Modification Assay (LCMS detection of covalent adduct); assay type: binding; settings: normalized percent of control; tested at 5 μM concentration for 3 hours
Outline: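 Cys-light KRas G12C mutant protein incubated with compound in K-Ras assay buffer, reactions quenched at set time points with 25 mM acetic acid and analysed by intact-protein LC/MS on a C-3 column. Deconvoluted mass heights expressed as percent of control (POC) relative to compound-free protein.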

[1] = test system: NCI-H358 cells (express KRas G12C), Phospho-ERK; assay: Cellular inhibition of KRas G12C: Phospho-ERK in NCI-H358 cells; assay type: cell-based; settings: Homo sapiens, pERK(Thr202/Tyr204) normalized with GAPDH, NCI-H358 cells, 3 hours, read-out: IC50
Outline: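 IC50 derived by 4-parameter fit of GAPDH-normalized pERK(Thr202/Tyr204) signal, as percent of DMSO control. Signal came from in-cell immunodetection with infrared secondaries after 3 h compound exposure of KRas G12C NCI-H358 cells at 0.5% DMSO.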

Row | Structure (SMILES) | POC (KRas G12C) | IC50 [1] [nM] | IC50 ([1]; NCI-H358, 3 h) [nM]
1 | C=CC(=O)N1CCN(c2nc(OCCN3CCC(F)C3)nc3c2CCN(c2cc(O)cc4ccccc24)C3)CC1 (stereo not shown) [Example 49, 1-(4-(2-(2-(3-fluoropyrrolidin-1-yl)ethoxy)-7-(3-hydroxynaphthalen-1-yl)-5,6,7,8-tetrahydropyrido[3,4-d]pyrimidin-4-yl)piperazin-1-yl)prop-2-en-1-one] | B (“B”>25% POC−≤50% POC) | – | > 1000
2 | C=CC(=O)N1CCN(c2nc(OCCN(C)C)nc3c2CCN(c2cc(O)cc4ccccc24)C3)CC1CO (stereo not shown) [Example 50, 1-(4-(2-(2-(dimethylamino)ethoxy)-7-(3-hydroxynaphthalen-1-yl)-5,6,7,8-tetrahydropyrido[3,4-d]pyrimidin-4-yl)-2-(hydroxymethyl)piperazin-1-yl)prop-2-en-1-one] | C (“C”>50% POC) | – | > 1000
3 | C=CC(=O)N1CCN(c2nc(OCCN(C)C)nc3c2CCN(c2cc(O)cc4ccccc24)C3)CC1C(=O)N(C)C (stereo not shown) [Example 51, 1-acryloyl-4-(2-(2-(dimethylamino)ethoxy)-7-(3-hydroxynaphthalen-1-yl)-5,6,7,8-tetrahydropyrido[3,4-d]pyrimidin-4-yl)-N,N-dimethylpiperazine-2-carboxamide] | A (“A”≤25% POC) | > 1000 | –
4 | C=CC(=O)N1CCN(c2nc(OCCN3CCCCC3)nc3c2CCN(c2cc(O)cc4ccccc24)C3)CC1 [Example 52, 1-[4-[7-(3-hydroxy-1-naphthyl)-2-[2-(1-piperidyl)ethoxy]-6,8-dihydro-5H-pyrido[3,4-d]pyrimidin-4-yl]piperazin-1-yl]prop-2-en-1-one] | C (“C”>50% POC) | – | 0.1 to 1000
5 | C=CC(=O)N1CCN(c2nc(OCCN(C)C)nc3c2CCN(c2cc(O)cc4ccccc24)C3)C(CO)C1 (stereo not shown) [Example 53, 1-(4-(2-(2-(dimethylamino)ethoxy)-7-(3-hydroxynaphthalen-1-yl)-5,6,7,8-tetrahydropyrido[3,4-d]pyrimidin-4-yl)-3-(hydroxymethyl)piperazin-1-yl)prop-2-en-1-one] | C (“C”>50% POC) | – | > 1000
6 | C=CC(=O)N1CCN(c2ncnc3c2CCN(c2nc(N)cc4ccccc24)C3)CC1 [Example 54, 1-[4-[7-(3-amino-1-isoquinolyl)-6,8-dihydro-5H-pyrido[3,4-d]pyrimidin-4-yl]piperazin-1-yl]prop-2-en-1-one] | A (“A”≤25% POC) | > 1000 | –
7 | C=CC(=O)N1CCN(c2nc(OC[C@@H]3CCC(=O)N3)nc3c2CCN(c2cc(O)cc4ccccc24)C3)CC1 [Example 57, (S)-5-(((4-(4-acryloylpiperazin-1-yl)-7-(3-hydroxynaphthalen-1-yl)-5,6,7,8-tetrahydropyrido[3,4-d]pyrimidin-2-yl)oxy)methyl)pyrrolidin-2-one] | C (“C”>50% POC) | – | > 1000
8 | C=CC(=O)N1CCN(c2nc(OC[C@H]3CCC(=O)N3)nc3c2CCN(c2cc(O)cc4ccccc24)C3)CC1 [Example 58, (R)-5-(((4-(4-acryloylpiperazin-1-yl)-7-(3-hydroxynaphthalen-1-yl)-5,6,7,8-tetrahydropyrido[3,4-d]pyrimidin-2-yl)oxy)methyl)pyrrolidin-2-one] | C (“C”>50% POC) | – | > 1000
9 | C=CC(=O)N1CCN(c2nc(O[C@H]3CCCN(C)C3)nc3c2CCN(c2cc(O)cc4ccccc24)C3)CC1 [Example 66, (S)-1-(4-(7-(3-hydroxynaphthalen-1-yl)-2-((1-methylpiperidin-3-yl)oxy)-5,6,7,8-tetrahydropyrido[3,4-d]pyrimidin-4-yl)piperazin-1-yl)prop-2-en-1-one] | C (“C”>50% POC) | – | > 1000
10 | C=CC(=O)N1CCN(c2ncnc3c2CCN(c2cncc4ccccc24)C3)CC1 [Example 69, 1-(4-(7-(isoquinolin-4-yl)-5,6,7,8-tetrahydropyrido[3,4-d]pyrimidin-4-yl)piperazin-1-yl)prop-2-en-1-one] | A (“A”≤25% POC) | > 1000 | –
11 | C=CC(=O)N1CCN(c2ncnc3c2CCN(C(CO)c2ccccc2)C3)CC1 (stereo not shown) [Example 71, 1-(4-(7-(2-hydroxy-1-phenylethyl)-5,6,7,8-tetrahydropyrido[3,4-d]pyrimidin-4-yl)piperazin-1-yl)prop-2-en-1-one] | A (“A”≤25% POC) | > 1000 | –
12 | C=CC(=O)N1CCN(c2nc(OCC3CCCN(C)C3)nc3c2CCN(c2cc(O)cc4ccccc24)C3)CC1 (stereo not shown) [Example 72, 1-(4-(7-(3-hydroxynaphthalen-1-yl)-2-((1-methylpiperidin-3-yl)methoxy)-5,6,7,8-tetrahydropyrido[3,4-d]pyrimidin-4-yl)piperazin-1-yl)prop-2-en-1-one] | C (“C”>50% POC) | – | 0.1 to 1000

Second part, led by results:

Row | POC (KRas G12C) | Structure (SMILES) | IC50 [1] [nM] | IC50 ([1]; NCI-H358, 3 h) [nM]
13 | C (“C”>50% POC) | C=CC(=O)N1CCN(c2nc(OCCN(C)C)nc3c2CC(C)N(c2cc(O)cc4ccccc24)C3)CC1 (stereo not shown) [Example 48, 1-(4-(2-(2-(dimethylamino)ethoxy)-7-(3-hydroxynaphthalen-1-yl)-6-methyl-5,6,7,8-tetrahydropyrido[3,4-d]pyrimidin-4-yl)piperazin-1-yl)prop-2-en-1-one trifluoroacetate] | > 1000 | –
14 | C (“C”>50% POC) | C=CC(=O)N1CCN(c2nc(OCC(CO)N(C)C)nc3c2CCN(c2cc(O)cc4ccccc24)C3)CC1 (stereo not shown) [Example 55, 1-(4-(2-(2-(dimethylamino)-3-hydroxypropoxy)-7-(3-hydroxynaphthalen-1-yl)-5,6,7,8-tetrahydropyrido[3,4-d]pyrimidin-4-yl)piperazin-1-yl)prop-2-en-1-one] | – | 0.1 to 1000
15 | C (“C”>50% POC) | C=CC(=O)N1CCN(c2nc(O[C@H](C)CN3CCOCC3)nc3c2CCN(c2cc(O)cc4ccccc24)C3)CC1 [Example 56, (R)-1-(4-(7-(3-hydroxynaphthalen-1-yl)-2-((1-morpholinopropan-2-yl)oxy)-5,6,7,8-tetrahydropyrido[3,4-d]pyrimidin-4-yl)piperazin-1-yl)prop-2-en-1-one] | – | 0.1 to 1000
16 | C (“C”>50% POC) | C=CC(=O)N1CCN(c2nc(OCCNC(C)=O)nc3c2CCN(c2cc(O)cc4ccccc24)C3)CC1 [Example 59, N-(2-((4-(4-acryloylpiperazin-1-yl)-7-(3-hydroxynaphthalen-1-yl)-5,6,7,8-tetrahydropyrido[3,4-d]pyrimidin-2-yl)oxy)ethyl)acetamide] | – | > 1000
17 | C (“C”>50% POC) | C=CC(=O)N1CCN(c2nc(O[C@H](CC)CN(C)C)nc3c2CCN(c2cc(O)cc4ccccc24)C3)CC1 [Example 60, (R)-1-(4-(2-((1-(dimethylamino)butan-2-yl)oxy)-7-(3-hydroxynaphthalen-1-yl)-5,6,7,8-tetrahydropyrido[3,4-d]pyrimidin-4-yl)piperazin-1-yl)prop-2-en-1-one] | – | > 1000
18 | C (“C”>50% POC) | C=CC(=O)N1CCN(c2nc(O[C@H](C)CN3CC[C@@H](OC)C3)nc3c2CCN(c2cc(O)cc4ccccc24)C3)CC1 [Example 63, 1-(4-(7-(3-hydroxynaphthalen-1-yl)-2-(((R)-1-((R)-3-methoxypyrrolidin-1-yl)propan-2-yl)oxy)-5,6,7,8-tetrahydropyrido[3,4-d]pyrimidin-4-yl)piperazin-1-yl)prop-2-en-1-one] | – | > 1000
19 | C (“C”>50% POC) | C=CC(=O)N1CCN(c2nc(O[C@H](C)CN3CC[C@H](OC)C3)nc3c2CCN(c2cc(O)cc4ccccc24)C3)CC1 [Example 64, 1-(4-(7-(3-hydroxynaphthalen-1-yl)-2-(((R)-1-((S)-3-methoxypyrrolidin-1-yl)propan-2-yl)oxy)-5,6,7,8-tetrahydropyrido[3,4-d]pyrimidin-4-yl)piperazin-1-yl)prop-2-en-1-one] | – | 0.1 to 1000
20 | C (“C”>50% POC) | C=CC(=O)N1CCN(c2nc(O[C@H](C)CN3CC[C@H](O)C3)nc3c2CCN(c2cc(O)cc4ccccc24)C3)CC1 [Example 65, 1-(4-(7-(3-hydroxynaphthalen-1-yl)-2-(((R)-1-((S)-3-hydroxypyrrolidin-1-yl)propan-2-yl)oxy)-5,6,7,8-tetrahydropyrido[3,4-d]pyrimidin-4-yl)piperazin-1-yl)prop-2-en-1-one] | – | > 1000
21 | C (“C”>50% POC) | C=CC(=O)N1CCN(c2nc(O[C@@H]3CCCN(C)C3)nc3c2CCN(c2cc(O)cc4ccccc24)C3)CC1 [Example 67, (R)-1-(4-(7-(3-hydroxynaphthalen-1-yl)-2-((1-methylpiperidin-3-yl)oxy)-5,6,7,8-tetrahydropyrido[3,4-d]pyrimidin-4-yl)piperazin-1-yl)prop-2-en-1-one] | – | 0.1 to 1000
22 | A (“A”≤25% POC) | C=CC(=O)N1CCN(c2nc(O[C@H](C)CN(C)C)nc3c2CCN(c2cccc4ccccc24)C3)CC1 [Example 68, (R)-1-(4-(2-((1-(dimethylamino)propan-2-yl)oxy)-7-(naphthalen-1-yl)-5,6,7,8-tetrahydropyrido[3,4-d]pyrimidin-4-yl)piperazin-1-yl)prop-2-en-1-one] | – | > 1000
23 | C (“C”>50% POC) | C=CC(=O)N1CCN(c2nc(OC(C)CNC)nc3c2CCN(c2cc(O)cc4ccccc24)C3)CC1 (stereo not shown) [Example 70, 1-(4-(7-(3-hydroxynaphthalen-1-yl)-2-((1-(methylamino)propan-2-yl)oxy)-5,6,7,8-tetrahydropyrido[3,4-d]pyrimidin-4-yl)piperazin-1-yl)prop-2-en-1-one] | – | > 1000
